Key:
Assay in all cases: relative viability (nuclei count vs DMSO), 5 days (fraction); higher = more cells survive
HCC-44 = tested on: HCC-44
Procedure, shortened: (§1)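 Each reported value is a median over duplicate plates. It expresses relative viability: treated-well nuclei count divided by vehicle-well nuclei count. Lung cancer cell lines in 1536-well plates were dosed by pin tool a day after seeding, alone with one drug or with a fixed anchor-drug dose plus five library-drug doses (not always all listed) in √10 steps, and nuclei were counted after 5 days.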

EPLC-272H = tested on: EPLC-272H
Procedure, shortened: as §1

NCI-H1666 = tested on: NCI-H1666
Procedure, shortened: as §1

NCI-H2342 = tested on: NCI-H2342
Procedure, shortened: as §1

NCI-H650 = tested on: NCI-H650
Procedure, shortened: as §1

LU99A = tested on: LU99A
Procedure, shortened: as §1

LOU-NH91 = tested on: LOU-NH91
Procedure, shortened: as §1

NCI-H2087 = tested on: NCI-H2087
Procedure, shortened: as §1

201T = tested on: 201T
Procedure, shortened: as §1

NCI-H2170 = tested on: NCI-H2170
Procedure, shortened: as §1

H3255 = tested on: H3255
Procedure, shortened: as §1

NCI-H1975 = tested on: NCI-H1975
Procedure, shortened: as §1

EKVX = tested on: EKVX
Procedure, shortened: as §1

NCI-H647 = tested on: NCI-H647
Procedure, shortened: as §1

PC-3 [JPC-3] = tested on: PC-3 [JPC-3]
Procedure, shortened: as §1

SW 1573 = tested on: SW 1573
Procedure, shortened: as §1

HCC-827 = tested on: HCC-827
Procedure, shortened: as §1

BEN = tested on: BEN
Procedure, shortened: as §1

NCI-H1437 = tested on: NCI-H1437
Procedure, shortened: as §1

LCLC-97TM1 = tested on: LCLC-97TM1
Procedure, shortened: as §1

COR-L 105 = tested on: COR-L 105
Procedure, shortened: as §1

NCI-H2085 = tested on: NCI-H2085
Procedure, shortened: as §1

## Cc1sc2c(c1C)C(c1ccc(Cl)cc1)=N[C@@H](CC(=O)OC(C)(C)C)c1nnc(C)n1-2 [JQ1] + Cc1cc(Nc2cc(N3CCN(C)CC3)nc(Sc3ccc(NC(=O)C4CC4)cc3)n2)n[nH]1 [Tozasertib] (partner 0.1 µM)
HCC-44; first compound 0.04 µM
  relative viability: 0.888
HCC-44; first compound 0.1265 µM
  relative viability: 0.345
HCC-44; first compound 0.4 µM
  relative viability: 0.326
HCC-44; first compound 1.265 µM
  relative viability: 0.286
HCC-44; first compound 4 µM
  relative viability: 0.136
EPLC-272H; first compound 0.04 µM
  relative viability: 0.418
EPLC-272H; first compound 0.1265 µM
  relative viability: 0.24
EPLC-272H; first compound 0.4 µM
  relative viability: 0.373
EPLC-272H; first compound 1.265 µM
  relative viability: 0.257
EPLC-272H; first compound 4 µM
  relative viability: 0.258
NCI-H1666; first compound 0.04 µM
  relative viability: 0.569
NCI-H1666; first compound 0.1265 µM
  relative viability: 0.534
NCI-H1666; first compound 0.4 µM
  relative viability: 0.484
NCI-H1666; first compound 1.265 µM
  relative viability: 0.36
NCI-H1666; first compound 4 µM
  relative viability: 0.354
NCI-H2342; first compound 0.04 µM
  relative viability: 0.65
NCI-H2342; first compound 0.1265 µM
  relative viability: 0.436
NCI-H2342; first compound 0.4 µM
  relative viability: 0.46
NCI-H2342; first compound 1.265 µM
  relative viability: 0.45
NCI-H2342; first compound 4 µM
  relative viability: 0.336
NCI-H650; first compound 0.04 µM
  relative viability: 0.657
NCI-H650; first compound 0.1265 µM
  relative viability: 0.541
NCI-H650; first compound 0.4 µM
  relative viability: 0.368
NCI-H650; first compound 1.265 µM
  relative viability: 0.21
NCI-H650; first compound 4 µM
  relative viability: 0.177
LU99A; first compound 0.04 µM
  relative viability: 0.277
LU99A; first compound 0.1265 µM
  relative viability: 0.304
LU99A; first compound 0.4 µM
  relative viability: 0.237
LU99A; first compound 1.265 µM
  relative viability: 0.188
LU99A; first compound 4 µM
  relative viability: 0.159
LOU-NH91; first compound 0.04 µM
  relative viability: 0.653
LOU-NH91; first compound 0.1265 µM
  relative viability: 0.453
LOU-NH91; first compound 0.4 µM
  relative viability: 0.255
LOU-NH91; first compound 1.265 µM
  relative viability: 0.359
LOU-NH91; first compound 4 µM
  relative viability: 0.299
NCI-H2087; first compound 0.04 µM
  relative viability: 0.253
NCI-H2087; first compound 0.1265 µM
  relative viability: 0.212
NCI-H2087; first compound 0.4 µM
  relative viability: 0.205
NCI-H2087; first compound 1.265 µM
  relative viability: 0.128
NCI-H2087; first compound 4 µM
  relative viability: 0.144
201T; first compound 0.04 µM
  relative viability: 0.971
201T; first compound 0.1265 µM
  relative viability: 0.651
201T; first compound 0.4 µM
  relative viability: 0.613
201T; first compound 1.265 µM
  relative viability: 0.566
201T; first compound 4 µM
  relative viability: 0.383
NCI-H2170; first compound 0.04 µM
  relative viability: 0.711
NCI-H2170; first compound 0.1265 µM
  relative viability: 0.64
NCI-H2170; first compound 0.4 µM
  relative viability: 0.467
NCI-H2170; first compound 1.265 µM
  relative viability: 0.352
NCI-H2170; first compound 4 µM
  relative viability: 0.194
H3255; first compound 0.04 µM
  relative viability: 0.65
H3255; first compound 0.1265 µM
  relative viability: 0.625
H3255; first compound 0.4 µM
  relative viability: 0.64
H3255; first compound 1.265 µM
  relative viability: 0.426
H3255; first compound 4 µM
  relative viability: 0.204
NCI-H1975; first compound 0.04 µM
  relative viability: 0.75
NCI-H1975; first compound 0.1265 µM
  relative viability: 0.515
NCI-H1975; first compound 0.4 µM
  relative viability: 0.487
NCI-H1975; first compound 1.265 µM
  relative viability: 0.214
NCI-H1975; first compound 4 µM
  relative viability: 0.171
EKVX; first compound 0.04 µM
  relative viability: 0.317
EKVX; first compound 0.1265 µM
  relative viability: 0.361
EKVX; first compound 0.4 µM
  relative viability: 0.336
EKVX; first compound 1.265 µM
  relative viability: 0.247
EKVX; first compound 4 µM
  relative viability: 0.185
NCI-H647; first compound 0.04 µM
  relative viability: 0.353
NCI-H647; first compound 0.1265 µM
  relative viability: 0.203
NCI-H647; first compound 0.4 µM
  relative viability: 0.202
NCI-H647; first compound 1.265 µM
  relative viability: 0.0994
NCI-H647; first compound 4 µM
  relative viability: 0.0445
PC-3 [JPC-3]; first compound 0.04 µM
  relative viability: 0.924
PC-3 [JPC-3]; first compound 0.1265 µM
  relative viability: 0.935
PC-3 [JPC-3]; first compound 0.4 µM
  relative viability: 0.588
PC-3 [JPC-3]; first compound 1.265 µM
  relative viability: 0.502
PC-3 [JPC-3]; first compound 4 µM
  relative viability: 0.296
SW 1573; first compound 0.04 µM
  relative viability: 0.182
SW 1573; first compound 0.1265 µM
  relative viability: 0.137
SW 1573; first compound 0.4 µM
  relative viability: 0.181
SW 1573; first compound 1.265 µM
  relative viability: 0.141
SW 1573; first compound 4 µM
  relative viability: 0.16
HCC-827; first compound 0.04 µM
  relative viability: 0.398
HCC-827; first compound 0.4 µM
  relative viability: 0.328
HCC-827; first compound 1.265 µM
  relative viability: 0.27
HCC-827; first compound 4 µM
  relative viability: 0.213
BEN; first compound 0.04 µM
  relative viability: 0.57
BEN; first compound 0.1265 µM
  relative viability: 0.535
BEN; first compound 0.4 µM
  relative viability: 0.5
BEN; first compound 1.265 µM
  relative viability: 0.365
BEN; first compound 4 µM
  relative viability: 0.28
NCI-H1437; first compound 0.04 µM
  relative viability: 0.421
NCI-H1437; first compound 0.1265 µM
  relative viability: 0.357
NCI-H1437; first compound 0.4 µM
  relative viability: 0.357
NCI-H1437; first compound 1.265 µM
  relative viability: 0.224
NCI-H1437; first compound 4 µM
  relative viability: 0.174
LCLC-97TM1; first compound 0.04 µM
  relative viability: 0.197
LCLC-97TM1; first compound 0.1265 µM
  relative viability: 0.223
LCLC-97TM1; first compound 0.4 µM
  relative viability: 0.171
LCLC-97TM1; first compound 1.265 µM
  relative viability: 0.116
LCLC-97TM1; first compound 4 µM
  relative viability: 0.146
COR-L 105; first compound 0.04 µM
  relative viability: 0.359
COR-L 105; first compound 0.1265 µM
  relative viability: 0.315
COR-L 105; first compound 0.4 µM
  relative viability: 0.297
COR-L 105; first compound 1.265 µM
  relative viability: 0.235
COR-L 105; first compound 4 µM
  relative viability: 0.112
NCI-H2085; first compound 0.04 µM
  relative viability: 0.761
NCI-H2085; first compound 0.1265 µM
  relative viability: 0.727
NCI-H2085; first compound 0.4 µM
  relative viability: 0.63
NCI-H2085; first compound 1.265 µM
  relative viability: 0.414
NCI-H2085; first compound 4 µM
  relative viability: 0.328

Reference: the supplement of paper PMC10307832
